Measured values published in the supplement of paper PMC10307832.

Experiments:
YM155 + Foretinib = compound: COCC[n+]1c2c(n(Cc3cnccn3)c1C)C(=O)c1ccccc1C2=O [YM155] + COc1cc2c(Oc3ccc(NC(=O)C4(C(=O)Nc5ccc(F)cc5)CC4)cc3F)ccnc2cc1OCCCN1CCOCC1 [Foretinib] (partner 0.25 µM); assay: relative viability (nuclei count vs DMSO), 5 days (fraction); higher = more cells survive
Summary of the method: (§1)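 Relative viability divides the nuclei count in treated wells by that in vehicle wells. Lung cancer cell lines were seeded in 1536-well plates, dosed by pin tool the next day, and fixed and stained after 5 days in one step with final 0.05% Triton X-100, 1% formaldehyde and 1 ug/ml Hoechst. Dosing was a single drug or a fixed anchor-drug dose plus five library-drug doses (not always all listed) in √10 steps, and values are medians of duplicate plates imaged at 4×.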

Quizartinib + Navitoclax = compound: CC(C)(C)c1cc(NC(=O)Nc2ccc(-c3cn4c(n3)sc3cc(OCCN5CCOCC5)ccc34)cc2)no1 [Quizartinib] + CC1(C)CCC(c2ccc(Cl)cc2)=C(CN2CCN(c3ccc(C(=O)NS(=O)(=O)c4ccc(N[C@H](CCN5CCOCC5)CSc5ccccc5)c(S(=O)(=O)C(F)(F)F)c4)cc3)CC2)C1 [Navitoclax] (partner 0.5 µM); assay: as above
Summary of the method: as §1

Row | Cell Line | relative viability (YM155 + Foretinib; first compound 0.002 µM) | relative viability (YM155 + Foretinib; first compound 0.006325 µM) | relative viability (YM155 + Foretinib; first compound 0.02 µM) | relative viability (YM155 + Foretinib; first compound 0.06325 µM) | relative viability (Quizartinib + Navitoclax; first compound 0.001 µM) | relative viability (Quizartinib + Navitoclax; first compound 0.003162 µM) | relative viability (Quizartinib + Navitoclax; first compound 0.01 µM) | relative viability (Quizartinib + Navitoclax; first compound 0.03162 µM) | relative viability (Quizartinib + Navitoclax; first compound 0.1 µM)
1 | NCI-H1975 | 0.978 | 0.907 | 0.933 | 0.308 | 1.02 | 1.1 | 1.19 | 1.06 | 1.1
2 | NCI-H1993 | 0.659 | 0.709 | 0.811 | 0.64 | 0.964 | 0.906 | 1.13 | 0.959 | 0.793
3 | NCI-H2009 | 1.24 | 1.21 | 1.09 | 0.583 | 1.13 | 1.16 | 1.22 | 1.03 | 1.23
4 | NCI-H2023 | 0.999 | 0.662 | 0.767 | 0.368 | 0.981 | 0.937 | 1.04 | 0.744 | 1.04
5 | NCI-H2085 | 0.887 | 0.922 | 0.915 | 0.629 | 1.03 | 1.09 | 1.12 | 1.15 | 1
6 | NCI-H2087 | 1.17 | 0.968 | 1.07 | 0.869 | 0.971 | 0.953 | 1.06 | 1.02 | 0.962
7 | NCI-H2126 | 0.893 | 1.07 | 1.25 | 1.29 | 0.813 | 0.823 | 0.882 | 0.872 | 0.828
8 | NCI-H2170 | 1 | 0.983 | 1 | 1.09 | 0.765 | 0.627 | 0.715 | 0.573 | 0.665
9 | NCI-H2228 | 0.772 | 0.912 | 0.867 | 0.708 | 0.859 | 0.702 | 0.75 | 1.08 | 0.98
10 | NCI-H2342 | 1 | 1.14 | 1.14 | 1.03 | – | – | – | – | –
11 | NCI-H2347 | 0.767 | 0.907 | 1.38 | 0.892 | 0.675 | 0.886 | 0.91 | 0.845 | 0.994
12 | NCI-H2405 | 1.04 | 1.03 | 0.936 | 0.64 | 0.912 | 0.858 | 0.942 | 0.784 | 1.15
13 | NCI-H3122 | 0.923 | 1 | 0.927 | 0.933 | 0.93 | 0.981 | 1.02 | 1.03 | 1.02
14 | PC-3 [JPC-3] | 1.04 | 1.08 | 1.11 | 1.02 | 0.703 | 0.859 | 0.768 | 0.835 | 0.821
15 | PC-14 | 0.83 | 0.911 | 0.908 | 1.02 | 1 | 0.892 | 1.09 | 0.966 | 0.977
16 | RERF-LC-KJ | 0.945 | 0.837 | 0.909 | 0.854 | 0.854 | 0.699 | 1.08 | 0.918 | 0.688
17 | SK-LU-1 | 0.766 | 0.738 | 0.904 | 0.661 | 0.852 | 0.771 | 0.979 | 0.72 | 1.07
18 | SK-MES-1 | 0.9 | 0.889 | 0.921 | 0.921 | 1.05 | 1.1 | 1.35 | 1.13 | 1.26
19 | SW 900 | 0.874 | 0.622 | 1.15 | 0.905 | – | – | – | – | –
